Here are results for 24 molecules from patent US20250325542A1, “INHIBITORS OF ANTIMOCROBIAL RESISTANCE AND METHOS USING SAME” (Baylor College of Medicine, priority 2022, published 2025).

In one series the target is KPC-2 (Klebsiella pneumoniae, UniProt Q9F663). Nature of the series: KPC-2 enzyme inhibition (Ki). In kind it is biochemical. From the text:
Several hits were identified from the qDOS38_1 library against the KPC-2 enzyme. All compounds were synthesized without linker C1a. Among the hit compounds, CDD-2312 had the highest enrichment score of 5.9 but a lower count number of 115 compared to other libraries screened at the same time.

For another series, the system named is E. coli NDM-1/XL-1B. Nature of the series: Accumulation assay in bacteria (LC-MS). In kind it is cell-based. Conditions: 50 μM compound, 10 min at 37° C.; tetracycline positive, clindamycin negative control. How it is done: Briefly, the overnight culture of E. coli NDM-1/XL-1B was inoculated into fresh Luria Bertani (LB) broth (1:100 v/v) and incubated at 37° C. with shaking to an optical density (OD600) of 0.55-0.60. The bacteria were pelleted by centrifugation and washed with 1× phosphate-buffered saline (PBS) before being re-suspended in PBS (28 times concentrated). The colony-forming units (CFUs) were determined by a calibration curve. Re-suspended cells were aliquoted into 1.5 mL Eppendorf tubes and recovered at 37° C. for 5 min. The compounds and controls were added with a final concentration of 50 μM. The mixtures were incubated at 37° C. for 10 min and the OD600 values were recorded to note the growth changes. To collect the cell pellets, 800 μL bacteria-compound mixtures were layered onto 700 μL silicone oil (9:1 v/v, AR20/Sigma High Temperature, pre-cooled at −80° C.) and bacteria were pelleted through the silicone oil by centrifugation. Cell pellets were re-suspended in 200 μL H2O and lysed using three freeze-thaw cycles of 3 min in liquid nitrogen followed by 3 min in a 65° C. water bath. Supernatants were collected after centrifuging and the cell debris was re-suspended in 100 μL methanol. The mixtures from cell debris were then centrifuged, and the methanol supernatants were combined with the supernatants from the last step before LC-MS analysis.
Two NL of supernatant was injected into a Thermo TSQ Quantis MS coupled with a Thermo Vanish UHPLC for analysis. The Phenomenex Luna C18 column (1.0 mm×50 mm, 1.7 μm) was used for resolving tested compounds with the column temperature being kept constant at 40° C. […] The compound concentrations in the samples were calculated based on their corresponding standard curves. […]
This could be partially due to the low accumulation of compounds into the periplasm and/or due to modest in vitro inhibition potency (Ki). To discern between the possibilities, the accumulation of inhibitors into bacteria was quantified using mass spectrometry. Compounds were pre-incubated with E. coli inoculum before cells were washed, lysed, and analyzed via mass spectrometry. […]

The next series deals with E. coli. Put plainly: MIC of PBP-3 screening hits against E. coli. In kind it is cell-based. To be noted: for MIC: Escherichia coli, inhibitor alone, read-out: E. coli minimum inhibitory concentration (MIC). As for the experimental part: (§1) Similarly to KPC-2 and NDM-1, PBP-3 was screened against the β-lactamase-focused library and several hits were identified from qDOS38_2 and qDOS38_4 (Table 7). Since PBP-3 is not a β-lactamase enzyme, the inhibition assay cannot be used to determine the biochemical potency of inhibitor against PBP-3. Instead, in vivo potency was determined directly against E. coli and A. baumanii. Since all bacteria express PBP-3 naturally, other modifications to wild-type bacteria were not necessary.
(§2) Unlike β-lactamase inhibitor MIC determinations, which measure the synergy between inhibitor and antibiotic, PBP-3 inhibitor MIC determination only measures a single dimension concentration gradient of the inhibitor.

The next series relates to A. baumanii. Nature of the series: MIC of PBP-3 screening hits against A. baumanii. It counts as cell-based. To be noted: inhibitor alone. How it is done:
as §1, §2

The test system of a further series is E. coli expressing NDM-1. It counts as cell-based. To be noted: for synergy with imipenem: comparison of imipenem MIC shifts; for Imipenem MIC (μg/mL): Ins = insoluble.
A further series addresses NDM-1 (Klebsiella pneumoniae, UniProt C7C422). It counts as biochemical.
The next series addresses OXA-48 (Klebsiella pneumoniae, UniProt Q6XEC0). Put plainly: biochemical. In kind it is biochemical.
Series [1] is described as follows: Solubility observed in assay media. It counts as physicochemical.
Setting [2] is: nitrocefin 30 μM, OXA-48 0.1 nM, read-out: OXA-48 Ki.
The mark [3] stands for this setting: imipenem 40 μM, NDM-1 2 nM, 10 μM ZnSO4.

Entries after “also recorded” stand apart in the source; their conditions may differ. Where two headings read alike, the source gives them in different places.

Sequence of NDM-1 (C7C422 whole entry, looked up, species assumed): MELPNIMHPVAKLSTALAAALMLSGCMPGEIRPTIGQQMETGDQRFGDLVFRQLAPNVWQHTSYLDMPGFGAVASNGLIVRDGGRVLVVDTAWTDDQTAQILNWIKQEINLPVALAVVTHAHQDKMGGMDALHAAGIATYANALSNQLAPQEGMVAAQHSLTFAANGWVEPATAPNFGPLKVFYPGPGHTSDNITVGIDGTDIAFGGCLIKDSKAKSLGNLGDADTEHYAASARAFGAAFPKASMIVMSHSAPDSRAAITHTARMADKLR
Sequence of KPC-2 (Q9F663 whole entry, looked up, species assumed): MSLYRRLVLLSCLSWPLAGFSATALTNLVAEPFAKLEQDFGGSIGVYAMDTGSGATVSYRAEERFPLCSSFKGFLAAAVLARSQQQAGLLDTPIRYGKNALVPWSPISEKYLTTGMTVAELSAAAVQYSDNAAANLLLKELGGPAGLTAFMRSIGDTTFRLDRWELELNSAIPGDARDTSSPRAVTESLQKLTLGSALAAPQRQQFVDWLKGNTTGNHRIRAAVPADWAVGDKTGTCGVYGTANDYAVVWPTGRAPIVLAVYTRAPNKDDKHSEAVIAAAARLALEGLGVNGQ
Sequence of OXA-48 (Q6XEC0 whole entry, looked up, species assumed): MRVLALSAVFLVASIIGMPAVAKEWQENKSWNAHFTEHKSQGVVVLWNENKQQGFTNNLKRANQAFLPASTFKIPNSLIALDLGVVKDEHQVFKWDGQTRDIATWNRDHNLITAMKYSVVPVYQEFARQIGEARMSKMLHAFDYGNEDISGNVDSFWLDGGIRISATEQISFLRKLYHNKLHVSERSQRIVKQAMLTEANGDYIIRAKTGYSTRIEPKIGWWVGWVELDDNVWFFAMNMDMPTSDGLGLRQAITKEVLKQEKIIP

Take `CNC(=O)c1cncc(-c2cnc(NCC(=O)O)nc2)c1` [CDD-2308, (5-(5-(methylcarbamoyl)pyridin-3-yl)pyrimidin-2-yl)glycine]: the Ki on KPC-2 is 3580 ± 1150 µM.

`CNC(=O)c1ccc(-c2cnc(NCC(=O)O)nc2)cc1F` [CDD-2309, (5-(3-fluoro-4-(methylcarbamoyl)phenyl)pyrimidin-2-yl)glycine] returned a Ki at KPC-2 of 980 ± 180 µM.

Consider `CNC(=O)c1cc2cc(-c3cnc(NCC(=O)O)nc3)ccc2nc1C` [CDD-2310, (5-(2-methyl-3-(methylcarbamoyl)quinolin-6-yl)pyrimidin-2-yl)glycine], for which the affinity on KPC-2, expressed as Ki, was 1240 ± 532 µM.

With `COc1cc(-c2cnc(NCC(=O)O)nc2)cc(C=O)c1OCC(=O)O` [CDD-2311, (5-(4-(carboxymethoxy)-3-formyl-5-methoxyphenyl)pyrimidin-2-yl)glycine], the Ki at KPC-2 was found to be 522 ± 113 µM.

As for `CNCc1cccc(NCc2ccc(-c3ccc(C(=O)O)c(O)c3)o2)c1` [CDD-2376, 2-hydroxy-4-(5-(((3-((methylamino)methyl)phenyl)amino)methyl)furan-2-yl)benzoic acid], in the series with E. coli NDM-1/XL-1B, the accumulation in bacteria result is “lowest amount of accumulation; also recorded: lowest of all three compounds tested and comparable to that of the negative control”.

In the case of `Nc1cccc(NCc2ccc(-c3cncc(C(=O)O)c3)cc2)c1` [CDD-2396, 5-(4-(((3-aminophenyl)amino)methyl)phenyl)nicotinic acid], the MIC in the series on E. coli is 256 µg/mL. The “effect against A. baumanii” value in the series with A. baumanii was “Neither of the compounds had any significant effect”.

For `NC(Cc1ccc(O)c(O)c1)C(=O)NCCc1ccccc1` (stereo not shown) [CDD-2507, 2-amino-3-(3,4-dihydroxyphenyl)-N-phenethylpropanamide], the “growth of bacteria below the MIC” value in the series on E. coli (16 μg/mL, E. coli) is “slower growth of bacteria”. In the series with E. coli, the MIC amounted to 128 µg/mL. The “effect against A. baumanii” value in the series on A. baumanii was “Neither of the compounds had any significant effect”.

On to `CNCc1cccc(NCc2ccc(-c3cccc(C(=O)O)c3O)o2)c1` [CDD-2522, 2-hydroxy-3-(5-(((3-((methylamino)methyl)phenyl)amino)methyl)furan-2-yl)benzoic acid], for which the synergy with imipenem entry in the series with E. coli expressing NDM-1 is “reduced synergy compared to CDD-2376 and CDD-2511”.

For `NCc1cccc(NCc2cccc(-c3ccc(C(=O)O)c(O)c3)c2)c1` [CDD-2616, 3′-(((3-(aminomethyl)phenyl)amino)methyl)-3-hydroxy-[1,1′-biphenyl]-4-carboxylic acid], the accumulation in bacteria result in the series on E. coli NDM-1/XL-1B is “comparable to that of the positive control”. For the same molecule, on NDM-1, the Ki turned out to be 0.9 ± 0.44 µM and the “NDM-1 Ki (μM)” value is “sub-micromolar inhibition potency”.

On to `NCc1cccc(NCc2cccc(-c3ccc(C(=O)O)c(O)c3)n2)c1` [CDD-2653, 4-(6-(((3-(aminomethyl)phenyl)amino)methyl)pyridin-2-yl)-2-hydroxybenzoic acid], for which the accumulation in bacteria entry with E. coli NDM-1/XL-1B was “much higher”.

For the molecule `COc1cc(-c2cc(O)cc(C(=O)O)c2)ccc1C(=O)O` [CDD-2724, 5-hydroxy-3′-methoxy-[1,1′-biphenyl]-3,4′-dicarboxylic acid], the Ki on OXA-48 worked out at 0.63 ± 0.13 µM. Moreover, at OXA-48 (relative to the related analogue named in the sentence), the “fold decrease in Ki / enhancement of potency against OXA-48” value is on record as 2 fold.

The molecule `CNC(=O)CCc1ccc(CNc2cccc(CCCNCc3ccccc3-c3cccc(C(=O)O)c3)c2)cc1` [CDD-2819, 2′-(((3-(3-((4-(3-(methylamino)-3-oxopropyl)benzyl)amino)phenyl)propyl)amino)methyl)-[1,1′-biphenyl]-3-carboxylic acid] gave an inhibition constant (Ki) on OXA-48 of 88 ± 4.4 µM.

For `Nc1cccc(CCCNCc2ccccc2-c2cccc(C(=O)O)c2)c1` [CDD-2820, 2′-(((3-(3-aminophenyl)propyl)amino)methyl)-[1,1′-biphenyl]-3-carboxylic acid], the Ki at OXA-48 (setting [2]) stood at 127 ± 86 µM.

As for `CN(C)C(=O)C1CCN(c2ccc(CNCc3ccccc3-c3cccc(C(=O)O)c3)cc2C#N)CC1` [CDD-2836, 2′-(((3-cyano-4-(4-(dimethylcarbamoyl)piperidin-1-yl)benzyl)amino)methyl)-[1,1′-biphenyl]-3-carboxylic acid], the Ki at OXA-48 (setting [2]) is 7.6 ± 1 µM.

`CC(=O)NCc1cccc(NCc2cccc(-c3ccc(C(=O)O)c(O)c3)c2)c1` [CDD-2919, 3′-(((3-(acetamidomethyl)phenyl)amino)methyl)-3-hydroxy-[1,1′-biphenyl]-4-carboxylic acid]: on NDM-1, the inhibition constant (Ki) is over 100 µM and the “NDM-1 Ki (μM)” value is reported as “near-complete loss of potency”.

In the case of `CNC(=O)Cc1cccc(NCc2cccc(-c3ccc(C(=O)O)c(O)c3)c2)c1` [CDD-2920, 3-hydroxy-3′-(((3-(2-(methylamino)-2-oxoethyl)phenyl)amino)methyl)-[1,1′-biphenyl]-4-carboxylic acid], at NDM-1 (setting [3]), the Ki turned out to be 87 ± 53 µM.

`NCc1cc(O)cc(NCc2cccc(-c3ccc(C(=O)O)c(O)c3)c2)c1` [CDD-2974, 3′-(((3-(aminomethyl)-5-hydroxyphenyl)amino)methyl)-3-hydroxy-[1,1′-biphenyl]-4-carboxylic acid] had a Ki at NDM-1 (setting [3]) of 3.5 ± 1.4 µM.

`NCc1cncc(NCc2cccc(-c3ccc(C(=O)O)c(O)c3)c2)c1` [CDD-2975, 3′-(((5-(aminomethyl)pyridin-3-yl)amino)methyl)-3-hydroxy-[1,1′-biphenyl]-4-carboxylic acid] displayed a Ki on NDM-1 (setting [3]) of 25 ± 14 µM.

At NDM-1, `NCc1cccc(NC(=O)c2cccc(-c3ccc(C(=O)O)c(O)c3)c2)c1` [CDD-2985, 3′-((3-(aminomethyl)phenyl)carbamoyl)-3-hydroxy-[1,1′-biphenyl]-4-carboxylic acid] returned a Ki of 29 ± 15 µM. Besides, in the series with E. coli expressing NDM-1, the synergy with imipenem result is “reduced synergy compared to CDD-2376 and CDD-2511”.

For the molecule `Cc1cc(CNc2cccc(CN)c2)cc(-c2ccc(C(=O)O)c(O)c2)c1` [CDD-2997, 3′-(((3-(aminomethyl)phenyl)amino)methyl)-3-hydroxy-5′-methyl-[1,1′-biphenyl]-4-carboxylic acid], the “solubility in aqueous solution” value in series [1] (MIC medium, above 64 μg/mL) is “low solubility in aqueous solution”. Moreover, the solubility in buffer entry in series [1] (at the accumulation assay concentration (50 μM)) was “low solubility in buffer”. In addition, the Ki on NDM-1 was found to be 0.53 ± 0.37 µM. Further, the “Imipenem MIC (μg/mL)” value in the series with E. coli expressing NDM-1 ([inhibitor] 64 μg/mL) and with E. coli expressing NDM-1 ([inhibitor] 128 μg/mL) was “Ins” each time.

On NDM-1, `NCc1cccc(NCc2cncc(-c3ccc(C(=O)O)c(O)c3)c2)c1` [CDD-2998, 4-(5-(((3-(aminomethyl)phenyl)amino)methyl)pyridin-3-yl)-2-hydroxybenzoic acid] registered a Ki of 1.9 ± 0.6 µM.

Consider `NCc1cccc(NCc2cc(-c3ccc(C(=O)O)c(O)c3)ccn2)c1` [CDD-3059, 4-(2-(((3-(aminomethyl)phenyl)amino)methyl)pyridin-4-yl)-2-hydroxybenzoic acid], for which the Ki on NDM-1 (setting [3]) was found to be 4.8 ± 0.4 µM.

On to `NCc1cccc(NCc2ccnc(-c3ccc(C(=O)O)c(O)c3)c2)c1` [CDD-3060, 4-(4-(((3-(aminomethyl)phenyl)amino)methyl)pyridin-2-yl)-2-hydroxybenzoic acid], for which the Ki at NDM-1 (setting [3]) was 8.1 ± 2 µM.

`NCc1cccc(N2Cc3ccc(-c4ccc(C(=O)O)c(O)c4)cc3C2)c1` [CDD-3080, 4-(2-(3-(aminomethyl)phenyl)isoindolin-5-yl)-2-hydroxybenzoic acid] had a Ki on NDM-1 of 43 ± 24 µM. The synergy with imipenem entry in the series with E. coli expressing NDM-1 was “reduced synergy compared to CDD-2376 and CDD-2511”.

As usually defined, the Ki is a dissociation constant, usually derived from enzyme kinetics or from competition with a known ligand.
